Measurements from patent US20090143279A1 (priority 2007, published 2009).
Read-outs that look alike come from different tables or passages of the source.

Key:
reactive oxygen species = format: cell-based, mouse
mtOXPHOS transcripts = format: cell-based, mouse; settings: for mito-OXPHOS Z: Table 7, C2C12 myotubes, 48 h, composite Z-score
nuOXPHOS transcripts = format: cell-based, mouse; settings: for nucOXPHOS Z: Table 7, C2C12 myotubes, 48 h, composite Z-score
cytochrome c = format: cell-based, mouse
OXPHOS gene expression = format: cell-based, mouse
[1] = test system: mitochondrial membrane potential; format: cell-based, mouse
[2] = test system: cellular dehydrogenase activity
[3] = Conc 20 μM, normalized score vs mock-treated (DMSO) wells
[4] = composite Z-score vs DMSO, Conc 20 μM
[5] = composite Z-score vs mock-treated (DMSO) wells, Conc 20 μM
[6] = composite Z-score vs DMSO wells, Conc 20 μM
[7] = composite Z-score vs DMSO, Conc 11.16 μM
[8] = 20 μM, composite Z-score vs DMSO
[9] = 15.02 μM, composite Z-score vs DMSO
[10] = composite Z-score vs DMSO, Conc 8.94 μM
[11] = composite Z-score vs mock-treated (DMSO) wells, concentration of each compound in μM

SMILES: C[C@]12CCC(=O)C=C1C=C[C@@H]1[C@@H]2CC[C@@]2(C)[C@H]1CC[C@@]2(O)CCC(=O)O [canrenoic acid]
- ROS (composite Z-score) (reactive oxygen species; [3]): 0.803
- mitoOX (composite Z-score) (mtOXPHOS transcripts; [3]): −0.047
- nucOX (composite Z-score) (nuOXPHOS transcripts; [3]): 0.154
- cyt c (composite Z-score) (cytochrome c; [3]): 0.732
- GE-HTS (composite Z-score) (OXPHOS gene expression; [3]): 0.072
- Viability (composite Z-score) (C2C12 myotubes; [3]): −0.004
- ΔΨm (composite Z-score) [1, 3]: −0.749
- MTT (composite Z-score) [2, 3]: −0.973

SMILES: NNC(=O)c1ccncc1.Nc1ccc(C(=O)O)c(O)c1 [pasiniazid]
- ROS (reactive oxygen species; [4]): 0.502
- mitoOX (mtOXPHOS transcripts; [4]): −0.164
- nucOX (nuOXPHOS transcripts; [4]): −0.022
- cyt c (cytochrome c; [4]): 0.590
- GE-HTS (OXPHOS gene expression; [4]): −0.059
- Viability (C2C12 myotubes; [4]): −0.883
- ΔΨm [1, 4]: −0.809
- MTT [2, 4]: −0.807

SMILES: O=C1CC[C@]23/C=C/C(=O)NCCCCNCCCNC(=O)/C=C/c4ccc(c2c4)O[C@@H]3C1 [lunarine]
- ROS (reactive oxygen species; [4]): 0.385
- mitoOX (mtOXPHOS transcripts; [4]): −0.856
- nucOX (nuOXPHOS transcripts; [4]): −0.880
- cyt c (cytochrome c; [4]): 0.685
- GE-HTS (OXPHOS gene expression; [4]): −0.945
- Viability (C2C12 myotubes; [4]): −0.579
- ΔΨm [1, 4]: −0.795
- MTT [2, 4]: −0.938

SMILES: C=CC(C1=CC(=O)C(OC)=C(OC)C1=O)c1ccccc1 (centres unmarked) [3,4-dimethoxydalbergione, reference compound]
- ROS (reactive oxygen species; [5]): −1.269
- mito-OXPHOS Z (mtOXPHOS transcripts): −2.72
- mitoOX (mtOXPHOS transcripts; [5]): −2.724
- nucOXPHOS Z (nuOXPHOS transcripts): −2.94
- nucOX (nuOXPHOS transcripts; [5]): −2.944
- cyt c (cytochrome c; [5]): −5.551
- GE-HTS (OXPHOS gene expression; [5]): −3.047
- Viability (C2C12 myotubes; [5]): −4.588
- ΔΨm [1, 5]: −3.787
- MTT [2, 5]: −6.200

SMILES: C[C@]12C=CC(=O)C=C1CC[C@@H]1[C@@H]2C(=O)C[C@@]2(C)[C@H]1CC[C@]2(O)C(=O)CO [prednisone]
- ROS (reactive oxygen species; [6]): 0.253
- ROS (reactive oxygen species; [7]): 0.623
- mitoOX (mtOXPHOS transcripts; [6]): −0.473
- mitoOX (mtOXPHOS transcripts; [7]): −0.048
- nucOX (nuOXPHOS transcripts; [6]): −0.177
- nucOX (nuOXPHOS transcripts; [7]): −0.432
- cyt c (cytochrome c; [6]): −0.034
- cyt c (cytochrome c; [7]): −0.428
- GE-HTS (OXPHOS gene expression; [6]): −0.290
- GE-HTS (OXPHOS gene expression; [7]): −0.315
- Viability (C2C12 myotubes; [6]): −0.474
- Viability (C2C12 myotubes; [7]): −1.668
- ΔΨm [1, 6]: 0.258
- ΔΨm [1, 7]: −0.474
- MTT [2, 6]: −1.054
- MTT [2, 7]: −1.206

SMILES: CC1(C)C(=O)C=C[C@]2(C)[C@H]3CC[C@@]4(C)[C@H](c5ccoc5)OC(=O)[C@H]5O[C@]54[C@]3(C)[C@H](O)C[C@@H]12 [deacetylgedunin]
- ROS (reactive oxygen species; [5]): −0.966
- mitoOX (mtOXPHOS transcripts; [5]): −0.484
- nucOX (nuOXPHOS transcripts; [5]): −0.244
- cyt c (cytochrome c; [5]): −0.489
- GE-HTS (OXPHOS gene expression; [5]): −0.322
- Viability (C2C12 myotubes; [5]): −0.032
- ΔΨm [1, 5]: 0.349
- MTT [2, 5]: −0.958

SMILES: c1ccc2c(c1)CN1CCCC1=N2 [desoxypeganine]
- ROS (reactive oxygen species; [4]): 0.647
- mitoOX (mtOXPHOS transcripts; [4]): 0.556
- nucOX (nuOXPHOS transcripts; [4]): 0.621
- cyt c (cytochrome c; [4]): 0.372
- GE-HTS (OXPHOS gene expression; [4]): 0.631
- Viability (C2C12 myotubes; [4]): −0.281
- ΔΨm [1, 4]: 1.046
- MTT [2, 4]: 1.441

SMILES: O=C(Nc1ccc([N+](=O)[O-])cc1Cl)c1cc(Cl)ccc1O [niclosamide]
- ROS (reactive oxygen species): −3.069
- ROS (reactive oxygen species; [8]): −3.862
- mitoOX (mtOXPHOS transcripts): −0.755
- mitoOX (mtOXPHOS transcripts; [8]): −2.299
- nucOX (nuOXPHOS transcripts): −1.007
- nucOX (nuOXPHOS transcripts; [8]): −0.288
- cyt c (cytochrome c): −3.177
- cyt c (cytochrome c; [8]): −2.947
- GE-HTS (OXPHOS gene expression): −0.976
- GE-HTS (OXPHOS gene expression; [8]): −1.042
- Viability (C2C12 myotubes): −1.410
- Viability (C2C12 myotubes; [8]): −0.944
- ΔΨm [1]: −3.700
- ΔΨm [1, 8]: −4.256
- MTT [2]: −3.816
- MTT [2, 8]: −0.296

SMILES: C/C=C(/C(=C/C)c1ccc(O)cc1)c1ccc(O)cc1 [dienestrol]
- ROS (reactive oxygen species; [9]): −0.210
- ROS (reactive oxygen species; [8]): −0.260
- mitoOX (mtOXPHOS transcripts; [9]): 0.481
- mitoOX (mtOXPHOS transcripts; [8]): −0.222
- nucOX (nuOXPHOS transcripts; [9]): −0.191
- nucOX (nuOXPHOS transcripts; [8]): −0.251
- cyt c (cytochrome c; [9]): 0.894
- cyt c (cytochrome c; [8]): −0.653
- GE-HTS (OXPHOS gene expression; [9]): 0.033
- GE-HTS (OXPHOS gene expression; [8]): −0.280
- Viability (C2C12 myotubes; [9]): 0.829
- Viability (C2C12 myotubes; [8]): 0.290
- ΔΨm [1, 9]: −0.205
- ΔΨm [1, 8]: 0.129
- MTT [2, 9]: −0.652
- MTT [2, 8]: −0.326

SMILES: COc1cc2c3cc1Oc1c(OC)c(OC)cc4c1[C@@H](Cc1ccc(O)c(c1)Oc1ccc(cc1)C[C@@H]3N(C)CC2)N(C)CC4 [berbamine]
- ROS (reactive oxygen species; [4]): 0.153
- mitoOX (mtOXPHOS transcripts; [4]): −0.636
- nucOX (nuOXPHOS transcripts; [4]): −0.166
- cyt c (cytochrome c; [4]): 0.445
- GE-HTS (OXPHOS gene expression; [4]): −0.345
- Viability (C2C12 myotubes; [4]): −1.126
- ΔΨm [1, 4]: −0.289
- MTT [2, 4]: −1.021

SMILES: CN[C@@H]1[C@@H](O)[C@@H](O[C@@H]2[C@@H](O)[C@H](O[C@H]3OC(CN)=CC[C@H]3N)[C@@H](N)C[C@H]2N)OC[C@]1(C)O [sisomicin]
- ROS (reactive oxygen species; [10]): 1.889
- mitoOX (mtOXPHOS transcripts; [10]): −0.588
- nucOX (nuOXPHOS transcripts; [10]): −0.337
- cyt c (cytochrome c; [10]): 0.746
- GE-HTS (OXPHOS gene expression; [10]): −0.448
- Viability (C2C12 myotubes; [10]): −0.274
- ΔΨm [1, 10]: −0.962
- MTT [2, 10]: −1.515

SMILES: COc1cc2c(cc1OC)-c1cc3ccc(OC)c(OC)c3c[n+]1CC2 [Palmatine, reference compound]
- ROS (reactive oxygen species; [11]): 0.511
- mito-OXPHOS Z (mtOXPHOS transcripts): 1.83
- mitoOX (mtOXPHOS transcripts; [11]): 1.833
- nucOXPHOS Z (nuOXPHOS transcripts): 1.64
- nucOX (nuOXPHOS transcripts; [11]): 1.636
- cyt c (cytochrome c; [11]): −0.084
- GE-HTS (OXPHOS gene expression; [11]): 1.822
- Viability (C2C12 myotubes; [11]): −1.028
- ΔΨm [1, 11]: −0.823
- MTT [2, 11]: −1.222

SMILES: Sc1nc2ccccc2s1 [2-mercaptobenzothiazole]
- ROS (composite Z-score) (reactive oxygen species; [3]): 0.354
- mitoOX (composite Z-score) (mtOXPHOS transcripts; [3]): −0.097
- nucOX (composite Z-score) (nuOXPHOS transcripts; [3]): −0.231
- cyt c (composite Z-score) (cytochrome c; [3]): −0.026
- GE-HTS (composite Z-score) (OXPHOS gene expression; [3]): −0.211
- Viability (composite Z-score) (C2C12 myotubes; [3]): −0.830
- ΔΨm (composite Z-score) [1, 3]: −0.486
- MTT (composite Z-score) [2, 3]: −0.672

SMILES: COc1ccc(-c2coc3c(OC)c(OC)ccc3c2=O)cc1 [retusin dimethyl ether]
- ROS (composite Z-score) (reactive oxygen species): 0.069
- mitoOX (composite Z-score) (mtOXPHOS transcripts): −0.331
- nucOX (composite Z-score) (nuOXPHOS transcripts): −0.033
- cyt c (composite Z-score) (cytochrome c): −0.199
- GE-HTS (composite Z-score) (OXPHOS gene expression): −0.135
- Viability (composite Z-score) (C2C12 myotubes): 0.317
- ΔΨm (composite Z-score) [1]: 0.378
- MTT (composite Z-score) [2]: −1.263

SMILES: O=C(CCCCCCCCCCCCC1CCCC1)Nc1ccc(S(=O)(=O)c2ccc(NC(=O)CCCCCCCCCCCCC3CCCC3)cc2)cc1 [chaulmosulfone]
- ROS (composite Z-score) (reactive oxygen species; [3]): 0.935
- mitoOX (composite Z-score) (mtOXPHOS transcripts; [3]): 0.305
- nucOX (composite Z-score) (nuOXPHOS transcripts; [3]): 0.083
- cyt c (composite Z-score) (cytochrome c; [3]): −0.036
- GE-HTS (composite Z-score) (OXPHOS gene expression; [3]): 0.157
- Viability (composite Z-score) (C2C12 myotubes; [3]): −0.010
- ΔΨm (composite Z-score) [1, 3]: −0.993
- MTT (composite Z-score) [2, 3]: −0.289

SMILES: Nc1ccc(C(=O)[O-])cc1.[K+] [potassium p-aminobenzoate]
- ROS (reactive oxygen species; [8]): 0.818
- mitoOX (mtOXPHOS transcripts; [8]): −0.673
- nucOX (nuOXPHOS transcripts; [8]): −1.085
- cyt c (cytochrome c; [8]): 0.519
- GE-HTS (OXPHOS gene expression; [8]): −1.001
- Viability (C2C12 myotubes; [8]): −0.277
- ΔΨm [1, 8]: −0.826
- MTT [2, 8]: −1.445

SMILES: COC(=O)[C@H](c1ccccc1Cl)N1CCc2sccc2C1 [clopidogrel]
- ROS (reactive oxygen species): −0.196
- mitoOX (mtOXPHOS transcripts): −1.441
- nucOX (nuOXPHOS transcripts): −1.328
- cyt c (cytochrome c): 0.410
- GE-HTS (OXPHOS gene expression): −1.470
- Viability (C2C12 myotubes): −1.134
- ΔΨm [1]: −0.698
- MTT [2]: −1.447
